IC50 data for 44 molecules are collected here from patent US11292791B2 (priority 2017, dated 2022).

Structures are written as SMILES.

This test has as its target BRD4 (Homo sapiens (Human), UniProt O60885). Particulars: read-out: BRD4 IC50 (μM gmean).
For orientation: IC50 means the midpoint of a concentration-inhibition curve. On to `COC(=O)N1c2ccc3c(nc(CC(C(=O)O)c4ccccc4)n3-c3cccc(OC)c3)c2CC[C@@H]1C` (some centres unmarked) [Example 516], for which the IC50 lay within 1 to 1000 µM.
The figure for `COC(=O)N1c2ccc3c(nc(CCc4ccccc4C(=O)O)n3C3CCCCC3)c2CC[C@@H]1C` [Example 521] is 1 to 1000 µM.
For the molecule `C/C=C(\Oc1ccccc1)c1nc2c3c(ccc2n1[C@@H]1CCC[C@@H](C(=O)O)C1)N(C(=O)OC)[C@@H](C)CC3` [Example 522], the IC50 was in the range of 1 to 1000 µM.
The figure for `COC(=O)N1c2ccc3c(nc(CC(C(=O)O)c4ccc(C(F)F)cc4)n3C3CCCOC3)c2CC[C@@H]1C` (some centres unmarked) [Example 524] is 1 to 1000 µM; for `COC(=O)N1c2ccc3c(nc(C(C)Cn4ccc(C)n4)n3C3CCC(C(=O)O)CC3)c2CC[C@@H]1C` (some centres unmarked) [Example 526] it is 1 to 1000 µM.
Next, `COC(=O)N1c2ccc3c(nc(Cc4ccc(OC(F)F)cc4)n3[C@@H]3CCC[C@@H](C(=O)O)C3)c2CC[C@@H]1C` [Example 533]: 1 to 1000 µM; `CCC(O)(c1ccccc1)c1nc2c3c(ccc2n1[C@@H]1CCC[C@@H](C(=O)O)C1)N(C(=O)OC)[C@@H](C)CC3` (some centres unmarked) [Example 534]: 1 to 1000 µM.
The figure for `COC(=O)N1c2ccc3c(nc(CC(C(=O)O)c4ccccc4)n3-c3ccc(OC)cc3)c2CC[C@@H]1C` (some centres unmarked) [Example 536] is 1 to 1000 µM; for `COC(=O)N1c2ccc3c(nc(CC(C(=O)O)c4ccc(C)cc4)n3C3CCCOC3)c2CC[C@@H]1C` (some centres unmarked) [Example 539] it is 1 to 1000 µM.
With `COC(=O)N1c2ccc3c(nc(Cc4cc(F)cc(OC)c4)n3[C@@H]3CCC[C@@H](C(=O)O)C3)c2CC[C@@H]1C` [Example 541], the IC50 lay in the range of 1 to 1000 µM.
Regarding `COC(=O)N1c2ccc3c(nc(C(C)(O)c4ccccc4)n3C3CCCC(C(=O)O)C3)c2CC[C@@H]1C` (some centres unmarked) [Example 542], the IC50 lay in the range of 1 to 1000 µM.
`COC(=O)N1c2ccc3c(nc(Cc4ccc(OC(F)F)cc4)n3[C@H]3CC[C@H](C(=O)O)CC3)c2CC[C@@H]1C` [Example 544]: the IC50 lay within 1 to 1000 µM.
Next, `COC(=O)N1c2ccc3c(nc(Cc4ccc(C)cc4)n3[C@@H]3CCC[C@@H](C(=O)O)C3)c2CC[C@@H]1C` [Example 549]: 1 to 1000 µM; `COC(=O)N1c2ccc3c(nc(CCc4ccc(C)c(F)c4)n3[C@@H]3CCC[C@@H](C(=O)O)C3)c2CC[C@@H]1C` [Example 550]: 1 to 1000 µM; `COC(=O)N1c2ccc3c(nc(C(C)Cn4cc(Cl)cn4)n3C3CCC(C(=O)O)CC3)c2CC[C@@H]1C` (some centres unmarked) [Example 551]: 1 to 1000 µM.
The figure for `COC(=O)N1c2ccc3c(nc(Cc4ccc(OC)c(F)c4F)n3[C@H]3CC[C@H](C(=O)O)CC3)c2CC[C@@H]1C` [Example 553] is 1 to 1000 µM; for `COC(=O)N1c2ccc3c(nc(Cc4ccccc4C(=O)O)n3C3CCCCC3)c2CC[C@@H]1C` [Example 555] it is 1 to 1000 µM; for `COC(=O)N1c2ccc3c(nc(C(C)(C)c4ccc(OC)c(F)c4)n3[C@H]3CC[C@H](C(=O)O)CC3)c2CC[C@@H]1C` [Example 560] it is 1 to 1000 µM.
The figure for `COC(=O)N1c2ccc3c(nc(Cc4cc(F)ccc4OC)n3[C@H]3CC[C@H](C(=O)O)CC3)c2CC[C@@H]1C` [Example 561] is 1 to 1000 µM; for `COC(=O)N1c2ccc3c(nc(Cc4ccc(OC5CC5)nc4)n3[C@@H]3CCC[C@@H](C(=O)O)C3)c2CC[C@@H]1C` [Example 562] it is 1 to 1000 µM.
As to `COC(=O)N1c2ccc3c(nc(CC(C(=O)O)c4ccc(C)cc4)n3C3COCC(F)(F)C3)c2CC[C@@H]1C` (some centres unmarked) [Example 563], the IC50 was 1 to 1000 µM.
The figure for `COC(=O)N1c2ccc3c(nc(Cc4ccc(OC)cc4)n3[C@@H]3CCC[C@@H](C(=O)O)C3)c2CC[C@@H]1C` [Example 568] is 1 to 1000 µM; for `COC(=O)N1c2ccc3c(nc(C4(Oc5ccccc5)CC4)n3[C@H]3CC[C@H](C(=O)O)CC3)c2CC[C@@H]1C` [Example 574] it is 1 to 1000 µM; for `COC(=O)N1c2ccc3c(nc(CC4CCCCC4)n3[C@@H]3CCC[C@@H](C(=O)O)C3)c2CC[C@@H]1C` [Example 575] it is 1 to 1000 µM.
The figure for `COC(=O)N1c2ccc3c(nc(Cc4ccc5[nH]ccc5c4)n3[C@@H]3CCC[C@@H](C(=O)O)C3)c2CC[C@@H]1C` [Example 577] is 1 to 1000 µM.
As to `COC(=O)N1c2ccc3c(nc(CC(C(=O)O)c4cccc5ccccc45)n3C3CCCOC3)c2CC[C@@H]1C` (some centres unmarked) [Example 580], the IC50 lay within 1 to 1000 µM.
Turning to `COC(=O)N1c2ccc3c(nc(Cc4ccc(N(C)C)c(F)c4)n3[C@H]3CC[C@H](C(=O)O)CC3)c2CC[C@@H]1C` [Example 581], the half-maximal inhibitory concentration (IC50) is 1 to 1000 µM.
Next, `COC(=O)N1c2ccc3c(nc(C(CO)c4ccccc4)n3C3CCC(C(=O)O)CC3)c2CC[C@@H]1C` (some centres unmarked) [Example 582]: 1 to 1000 µM; `COC(=O)N1c2ccc3c(nc(C(C)Cn4cccn4)n3C3CCCC(C(=O)O)C3)c2CC[C@@H]1C` (some centres unmarked) [Example 583]: 1 to 1000 µM.
In the case of `COC(=O)N1c2ccc3c(nc(CC(C(=O)O)c4ccc(C(F)F)cc4)n3C3CCCOC3)c2CC[C@@H]1C` (some centres unmarked) [Example 584], the IC50 lay within 1 to 1000 µM.
The figure for `COC(=O)N1c2ccc3c(nc(C4(N5CCCCC5=O)CC4)n3[C@@H]3CCC[C@@H](C(=O)O)C3)c2CC[C@@H]1C` [Example 588] is 1 to 1000 µM.
Next, `COC(=O)N1c2ccc3c(nc(C(O)c4cc5ccoc5cn4)n3C3CCCC(C(=O)O)C3)c2CC[C@@H]1C` (some centres unmarked) [Example 589]: 1 to 1000 µM; `COC(=O)N1c2ccc3c(nc(N(C)c4ccc(C)cc4)n3[C@@H]3CCC[C@@H](C(=O)O)C3)c2CC[C@@H]1C` [Example 591]: 1 to 1000 µM; `COC(=O)N1c2ccc3c(nc(Cc4cccc(OC(F)F)n4)n3[C@@H]3CCC[C@@H](C(=O)O)C3)c2CC[C@@H]1C` [Example 593]: 1 to 1000 µM.
Take `COC(=O)N1c2ccc3c(nc(CC(C(=O)O)c4ccccc4)n3C3COCC(F)(F)C3)c2CC[C@@H]1C` (some centres unmarked) [Example 594]: the IC50 was 1 to 1000 µM.
For `COC(=O)N1c2ccc3c(nc(C(O)CC4CCC(F)(F)CC4)n3C3CCCC(C(=O)O)C3)c2CC[C@@H]1C` (some centres unmarked) [Example 596], the IC50 was in the range of 1 to 1000 µM.
Next, `COC(=O)N1c2ccc3c(nc(Cc4cccc(F)c4)n3[C@@H]3CCC[C@@H](C(=O)O)C3)c2CC[C@@H]1C` [Example 601]: 1 to 1000 µM; `COC(=O)N1c2ccc3c(nc(CC(C(=O)O)c4ccccc4)n3C3COCC(F)(F)C3)c2CC[C@@H]1C` (some centres unmarked) [Example 602]: 1 to 1000 µM; `COC(=O)N1c2ccc3c(nc(C(C)(O)c4ccccc4)n3C3CCCC(C(=O)O)C3)c2CC[C@@H]1C` (some centres unmarked) [Example 607]: 1 to 1000 µM.
The figure for `COC(=O)N1c2ccc3c(nc(C(O)c4ccc(Cl)cn4)n3C3CCCC(C(=O)O)C3)c2CC[C@@H]1C` (some centres unmarked) [Example 610] is 1 to 1000 µM; for `COC(=O)N1c2ccc3c(nc(Cc4cncc(C(C)C)n4)n3[C@@H]3CCC[C@@H](C(=O)O)C3)c2CC[C@@H]1C` [Example 611] it is 1 to 1000 µM; for `COC(=O)N1c2ccc3c(nc(N(C)c4cccc(F)c4)n3[C@H]3CC[C@H](C(=O)O)CC3)c2CC[C@@H]1C` [Example 613] it is 1 to 1000 µM.
The figure for `COC(=O)N1c2ccc3c(nc(CC4CCCCC4O)n3C3CCCC(C(=O)O)C3)c2CC[C@@H]1C` (some centres unmarked) [Example 614] is 1 to 1000 µM; for `COC(=O)N1c2ccc3c(nc(Cc4cccc(Cl)c4)n3[C@@H]3CCC[C@@H](C(=O)O)C3)c2CC[C@@H]1C` [Example 616] it is 1 to 1000 µM.
